Test results as given in patent US20260034130A1 (priority 2022, published 2026).
Where two headings read alike, the source gives them in different places.

Experiments:
[1] = test system: patients with acute ischemic stroke or high-risk TIA
Text: As used herein, the “Bleeding Academic Research Consortium (BARC) Type 3 criteria” are: a. Overt bleeding plus hemoglobin drop of 3 to <5 g/dL (provided hemoglobin drop is related to bleed); transfusion with overt bleeding; b. Overt bleeding plus hemoglobin drop ≥5 g/dL (provided hemoglobin drop is related to bleed); cardiac tamponade; bleeding requiring surgical intervention for control; bleeding requiring IV vasoactive agents; or c. Intracranial hemorrhage confirmed by autopsy, imaging, or lumbar puncture; intraocular bleed compromising vision. See, e.g., Roxana Mehran, et al. Standardized Bleeding Definitions for Cardiovascular Clinical Trials, Circulation.
As used herein, the “Bleeding Academic Research Consortium (BARC) Type 5 criteria” are: a. Probable fatal bleeding; or b. Definite fatal bleeding (overt or autopsy or imaging confirmation). See, e.g., Roxana Mehran, et al. Standardized Bleeding Definitions for Cardiovascular Clinical Trials, Circulation.
As used herein, the “Bleeding Academic Research Consortium (BARC) Type 2 criteria” are: any clinically overt sign of hemorrhage that “is actionable” and requires diagnostic studies, hospitalization, or treatment by a health care professional. See, e.g., Roxana Mehran, et al. Standardized Bleeding Definitions for Cardiovascular Clinical Trials, Circulation.
The secondary endpoint of major bleeding was determined by the occurrence of types 3 and 5 bleeding, according to the Bleeding Academic Research Consortium (BARC) classification system. Roxana Mehran, et al. Standardized Bleeding Definitions for Cardiovascular Clinical Trials, Circulation. […] Bleeding was additionally evaluated utilizing International Society on Thrombosis and Haemostasis (ISTH) and PLATelet inhibition and patient Outcomes (PLATO) criteria.
The population for safety analysis includes all participants who received at least one dose of study medication. This is the primary population used in safety analysis and is analyzed according to the treatment assigned at randomization.
Analysis of all safety data will be performed on participants treated with ≥1 dose of double-blind drug. The proportion of participants with major bleeding events (BARC types 3 and 5), as well as BARC-, ISTH-, and PLATO-defined criteria, will be summarized by treatment group. Additional summaries will include characteristics of cerebral microbleeds, hemorrhagic transformation of ischemic stroke, and asymptomatic intracranial bleeding. Adverse event and laboratory data, as well as PK and PD data, will be summarized.

[2] = test system: patients with acute ischemic stroke or high-risk TIA; assay: AXIOMATIC-SSP primary efficacy: composite of new clinical ischemic stroke during treatment and new covert brain infarction detected by MRI on Day 90; assay type: in vivo, human; conditions: modified ITT
Procedure: The main objective is to determine the dose-response relationship of milvexian in participants with acute ischemic stroke or TIA who are treated with aspirin and clopidogrel. The main secondary objective is to assess the rate of major bleeding in this population compared with placebo.
The primary efficacy endpoint was the composite of incident ischemic stroke during the treatment period or new covert brain infarction detected by the comparison of 90-day and baseline MRIs. All images were read independently by 2 blinded neuroradiologists, and disagreements were resolved by consensus. […] Clinically overt strokes were determined by site investigators following standardized definitions. Briefly, to qualify as an outcome event, a clinical diagnosis of stroke required a sustained increase in the NIHSS score of ≥3 points that was not explained by other factors, such as infection, or was confirmed by imaging as a new infarct. Covert brain infarction is defined as small ischemic cerebral lesions that are detected on Day 90 MRI in the absence of a symptomatic ischemic stroke event.
All randomized participants will be included in the analysis of the primary endpoint if they have either a symptomatic ischemic stroke event by day 90 or an evaluable MRI at the day 90 visit. Because of the COVID-19 pandemic, all day 90 visit MRIs will be included in the primary analysis, regardless of timing. All other efficacy analyses will be performed on a randomized (intent-to-treat, ITT) population up to day 90.
The population for the primary efficacy endpoint analysis include all randomized participants who have (i) a primary endpoint event (a new ischemic stroke during the study period or a new covert brain infarction detected by MRI on Day 90) or (ii) an evaluable MRI image on Day 90.
The primary efficacy outcome was to assess dose response for the composite of new clinical ischemic stroke during treatment and new covert brain infarction detected by MRI on Day 90 in a modified ITT population (those participants with either a clinical ischemic stroke or a Day 90 MRI).

[3] = test system: patients with acute ischemic stroke or high-risk TIA; assay: AXIOMATIC-SSP composite of new ischemic stroke, MI and all-cause death; assay type: in vivo, human; conditions: up to Day 90
Text: Event rates of the composite of new ischemic non-fatal stroke, non-fatal myocardial infarction, or all-cause death.

C[C@@H]1CCC[C@H](n2cnc(-c3cc(Cl)ccc3-n3cc(Cl)nn3)cc2=O)c2cc(ccn2)-c2c(cnn2C(F)F)NC1=O [milvexian, (5R,9S)-9-(4-(5-chloro-2-(4-chloro-1H-1,2,3-triazol-1-yl)phenyl)-6-oxopyrimidin-1(6H)-yl)-21-(difluoromethyl)-5-methyl-21H-3-aza-1(4,2)-pyridina-2(5,4)-pyrazolacyclonaphan-4-one]
BARC Type 5 (fatal) bleeding, subjects n ([1]; 25 mg BID, N = 313): 0
BARC Type 5 bleeding, Incidence Rate (n/N %) ([1]; 25 mg BID, N = 313): (0) %
BARC Type 5 (fatal) bleeding, subjects n ([1]; 25 mg QD, N = 325): 0
BARC Type 5 bleeding, Incidence Rate (n/N %) ([1]; 25 mg QD, N = 325): (0) %
BARC Type 5 (fatal) bleeding, subjects n ([1]; 50 mg BID, N = 325): 0
BARC Type 5 bleeding, Incidence Rate (n/N %) ([1]; 50 mg BID, N = 325): (0) %
BARC Type 5 (fatal) bleeding, subjects n ([1]; 100 mg BID, N = 306): 0
BARC Type 5 bleeding, Incidence Rate (n/N %) ([1]; 100 mg BID, N = 306): (0) %
BARC Type 5 (fatal) bleeding, subjects n ([1]; 200 mg BID, N = 344): 0
BARC Type 5 bleeding, Incidence Rate (n/N %) ([1]; 200 mg BID, N = 344): (0) %
fatal bleeding ([1]; all treatment arms): No fatal bleeding
incidence rate (n/N %) of bleeding endpoint (BARC Type 3 and 5) ([1]; human, in vivo, 90 days): 0.6-1.6%
incidence rate (n/N %) of composite of new clinical ischemic stroke and new covert brain infarction detected by MRI on Day 90 ([2]; 25 mg once daily): 16.2%
incidence rate (n/N %) of composite of new clinical ischemic stroke and new covert brain infarction detected by MRI on Day 90 ([2]; 25 mg twice daily): 18.5%
incidence rate (n/N %) of composite of new clinical ischemic stroke and new covert brain infarction detected by MRI on Day 90 ([2]; 50 mg twice daily): 14.1%
incidence rate (n/N %) of composite of new clinical ischemic stroke and new covert brain infarction detected by MRI on Day 90 ([2]; 100 mg twice daily): 14.7%
incidence rate (n/N %) of composite of new clinical ischemic stroke and new covert brain infarction detected by MRI on Day 90 ([2]; 200 mg twice daily): 16.4%
All Cause Death (%) ([3]; 25 mg BID, N = 318): (0.9) %
All Cause Death, subjects n ([3]; 25 mg BID, N = 318): 3
Myocardial Infarction (%) ([3]; 25 mg BID, N = 318): (0.6) %
Myocardial Infarction, subjects n ([3]; 25 mg BID, N = 318): 2
New Ischemic Stroke, MI And All Cause Death: Subjects With Event (%) ([3]; 25 mg BID, N = 318): (4.7) %
All Cause Death (%) ([3]; 25 mg QD, N = 328): (0.9) %
All Cause Death, subjects n ([3]; 25 mg QD, N = 328): 3
Myocardial Infarction (%) ([3]; 25 mg QD, N = 328): (0.3) %
Myocardial Infarction, subjects n ([3]; 25 mg QD, N = 328): 1
New Ischemic Stroke, MI And All Cause Death: Subjects With Event (%) ([3]; 25 mg QD, N = 328): (5.2) %
All Cause Death (%) ([3]; 50 mg BID, N = 328): (0.6) %
All Cause Death, subjects n ([3]; 50 mg BID, N = 328): 2
Myocardial Infarction (%) ([3]; 50 mg BID, N = 328): (0.3) %
Myocardial Infarction, subjects n ([3]; 50 mg BID, N = 328): 1
New Ischemic Stroke, MI And All Cause Death: Subjects With Event (%) ([3]; 50 mg BID, N = 328): (4.9) %
All Cause Death (%) ([3]; 100 mg BID, N = 310): (1.6) %
All Cause Death, subjects n ([3]; 100 mg BID, N = 310): 5
Myocardial Infarction (%) ([3]; 100 mg BID, N = 310): (0.6) %
Myocardial Infarction, subjects n ([3]; 100 mg BID, N = 310): 2
New Ischemic Stroke, MI And All Cause Death: Subjects With Event (%) ([3]; 100 mg BID, N = 310): (5.2) %
All Cause Death, subjects n ([3]; 200 mg BID, N = 351): 4
Myocardial Infarction, subjects n ([3]; 200 mg BID, N = 351): 3
